Here are results for 86 molecules from a melting point compilation (Tetko et al.; mined from patent text by program, amines drawn as free bases though some values may be those of a salt).

Each structure is given as a SMILES string.

The melting point is the temperature, or range, at which the solid turns liquid. For `O=Cc1ccc(F)c(F)c1`, the melting point is 95 to 96 °C.

Molecule `CCN(CC)c1cccc2nc(Cc3c(Cl)cc(C(F)(F)F)cc3Cl)n(C)c12` came in with a melting point of 150 to 151 °C.

`COc1cc2nc(-c3cc(C)c(O)c(C)c3)[nH]c(=O)c2c(OC)c1CN1CCOCC1`: the melting point lay in the range of 237 to 239 °C.

Molecule `O=C1Nc2cccnc2N(C(=O)NCCN2CCCCC2CN2CCCCCC2)c2ccccc21` (stereo unspecified) registered a melting point of 156 to 158 °C.

The molecule `CC1NC(=O)NN=C1c1ccc(OCC(=O)NCCN2CCN(S(C)(=O)=O)CC2)c(Cl)c1` (stereo unspecified) registered a melting point of 236 to 238 °C.

On to `O=C(Cc1ccc2[nH]cc(CCN3C(=O)c4ccccc4C3=O)c2c1)N1CCOCC1`, for which the melting point is 140 to 141 °C.

On to `CC1(C)CCC(C)(C)c2cc(C#Cc3ccc(C(=O)O)cc3)ccc21`, for which the melting point fell in the range of 252 to 256 °C.

Molecule `Cc1cccc(N(c2ccccc2)c2ccc(-c3ccc(-c4ccc(N(c5ccccc5)c5cccc(C)c5)cc4)cc3)cc2)c1` returned a melting point of 189 to 190 °C.

Regarding `CC(C)Oc1ccc(Cl)c2c(=O)c3ccccc3sc12`, the melting point fell in the range of 91 to 93 °C.

For the molecule `COC(=O)CC[C@H](NC(=O)CCCCC=Cc1cnc2nc(NC(=O)C(C)(C)C)nc(O)c2c1)C(=O)OC`, the melting point lay in the range of 79 to 81 °C.

The molecule `CC(C)c1nc(CCOC2=CCCCCCCCC2)n(C)c1Sc1cc(Cl)cc(Cl)c1` registered a melting point of 94 to 96 °C.

For the molecule `COc1ccc2c(c1)CCC(N(C)c1ccc(O)cc1)C2` (stereo unspecified), the melting point fell in the range of 79 to 82 °C.

For `Nc1nc(OC2CCCC2)c2ncn(C3C=CC(CO)C3)c2n1` (stereo unspecified), the melting point was 188 to 190 °C.

With `OCc1cn2c(n1)CN=C(c1ccccn1)c1cc(I)ccc1-2`, the melting point lay within 206 to 207 °C.

For the molecule `O=C1C[C@@H](O)C[C@H](CCc2c(Cl)cc(Cl)c3ccc(Cl)cc23)O1` (relative stereo), the melting point was in the range of 111 to 115 °C.

On to `O=C(c1ccc(Cl)cc1)C(O)c1ccc(Cl)cc1` (stereo unspecified), for which the melting point was 73 °C.

`CC(C)C1(C)N=C(c2nc3sccc3cc2C(=O)O)NC1=O` (stereo unspecified): the melting point was 221 to 223 °C.

`CC(C)CCn1c(=O)c2c(Cl)cc(Cl)cc2n(Cc2ccccc2)c1=O` registered a melting point of 89 to 92 °C.

Consider `O=C=NC(=O)CS(=O)(=O)c1ccc2ccccc2c1`, for which the melting point was 152 to 155 °C.

Turning to `Cc1ccc(Oc2ccc(C3NC(C(=O)O)CS3)cc2C#N)c(O)c1` (stereo unspecified), the melting point lay in the range of 150 to 152 °C.

Consider `C=C(C)C(=O)OCCCCCc1ccc(C(F)(F)Oc2ccc(OC(F)(F)c3ccc(CCCCCOC(=O)C(=C)C)cc3)c(C)c2)cc1`, for which the melting point was 26 °C.

Molecule `O=C(Nc1ccc2ncccc2c1)OCc1ccccc1` displayed a melting point of 122 °C.

Consider `Cc1ccc(NC(=O)c2cc([N+](=O)[O-])ccc2NC(=O)CF)c(C)c1`, for which the melting point fell in the range of 227 to 229 °C.

`N#Cc1ccc(N2CCN(Cc3cn4cc(Cl)ccc4n3)CC2)c(F)c1` yielded a melting point of 132 to 133 °C.

Molecule `CCc1cn(C2CC(OC(C)=O)C(CN(C)C(=O)Cc3ccccc3Br)O2)c(=O)[nH]c1=O` (stereo unspecified) came in with a melting point of 170 °C.

On to `COc1ccc(-c2oc3cc(NS(C)(=O)=O)c(Oc4ccccc4)cc3c(=O)c2O)cc1OC`, for which the melting point was 222 to 224 °C.

Regarding `O=Cc1ccc(OCC2CN(Cc3ccccc3)c3ccccc3O2)cc1` (stereo unspecified), the melting point was in the range of 92 to 94 °C.

In the case of `CC(=O)SC(CC(=O)c1ccc(C(C)C)cc1)C(=O)O` (stereo unspecified), the melting point is 84 to 86 °C.

With `CCn1c(-c2c(C)cc(C)cc2C)nc(-c2ccncc2)c1-c1ccc(C)cc1`, the melting point was 137 to 140 °C.

In turn, `Nc1ccccc1CCN1CCN(c2nsc3ccccc23)CC1` came in with a melting point of 149 °C.

`O=CC(=Cc1ccc(Cl)cc1)C(C=O)=Cc1ccc(Cl)cc1` displayed a melting point of 172 to 173 °C.

The molecule `Cc1cc(N)n(-c2ccc(Cl)nn2)n1` came in with a melting point of 148 to 150 °C.

For `CCOC(=O)CCCC1Sc2ccccc2NC1=O` (stereo unspecified), the melting point is 78 to 79 °C.

Molecule `Cc1ccc(C(=O)Nc2c(NC(=O)CN3CCOCC3)ccc3c2C(=O)c2ccccc2C3=O)cc1` had a melting point of 225 to 226 °C.

The molecule `Fc1ccc(Nc2nc3ccccc3o2)c(F)c1` showed a melting point of 115 to 117 °C.

Regarding `CC(C)(C)OC(=O)CN1CCN(CC(=O)O)C1=O`, the melting point fell in the range of 112 to 113 °C.

On to `CCN(C(=O)N1CCN(c2cc(OC)cc(OC)c2)CC1)c1cc2ccccc2nc1OC`, for which the melting point was 118 to 120 °C.

Molecule `Cc1c(C(=O)Nc2ccc(N3CCC(N4CCOCC4)CC3)c(C#N)c2)cnn1-c1ccc(F)c(Cl)c1` returned a melting point of 266 °C.

With `COc1c(NC(=O)c2ccc(Br)cc2)ccc2cc(CO)cnc12`, the melting point fell in the range of 185 to 187 °C.

The molecule `CCn1nc(C)c2c1NC(=O)CC2C` (stereo unspecified) showed a melting point of 141 to 142 °C.

Consider `CNC(=O)c1c(SC)c2cc(OC)ccc2n1C`, for which the melting point lay in the range of 137 to 139 °C.

`CCOc1cc(Oc2ccc(C(F)(F)F)cn2)ccc1CCCO`: the melting point was in the range of 50 to 51 °C.

Take `COC(=O)CCC(N=O)C(C)(C)Cl` (stereo unspecified): the melting point was 90 to 91 °C.

On to `CC(C)(C)[C@@H]1CCc2nc3sc(C(=O)N[C@H](CN)c4cccc(NC(=O)c5ccno5)c4)cc3cc2C1`, for which the melting point lay in the range of 98 to 102 °C.

For `CCOC(=O)c1cn(C)c2cc(-c3ccccc3)sc2c1=O`, the melting point was in the range of 189 to 191 °C.

`COc1ccc2c(c1)c1c3c(c(-c4ccccc4Cl)cc1n2CCO)C(=O)NC3=O` registered a melting point of 255 to 257 °C.

With `O=CC(=Cc1ccc(O)cc1)C(C=O)=Cc1ccc(O)cc1`, the melting point was in the range of 244 to 246 °C.

For `CCCCc1sc2ccccc2c1-c1ccc(-c2ccc(OC(C(=O)O)c3ccccc3)cc2)cc1` (stereo unspecified), the melting point was in the range of 157 to 159 °C.

Regarding `CC(C)(C)Sc1c(CC(C)(C)C(=O)O)n(Cc2ccc(Cl)cc2)c2ccc(OCc3ccc4cccnc4n3)cc12`, the melting point was determined as 122 °C.

The molecule `CCCCOc1cc(CCC(=O)O)ccc1-c1cccc(CN(C)C(=O)c2cccc(OC)c2)c1` displayed a melting point of 80 to 82 °C.

In turn, `Oc1cccc(N(c2ccccc2)c2ccc(-c3ccc(N(c4ccccc4)c4cccc(O)c4)cc3)cc2)c1` gave a melting point of 113 to 117 °C.

In turn, `CC(C)OC(=O)C(C)NC(=O)C(N)(CC(=O)O)NC(=O)C(C)C` (stereo unspecified) yielded a melting point of 176 to 178 °C.

As to `NC(=O)c1cc2c(SCc3ccc(Cl)cc3)cncc2s1`, the melting point fell in the range of 198 to 199 °C.

The molecule `COc1cc(C)c2c(c1OCC(=O)O)CC(C)(c1ccccc1)C2` (stereo unspecified) yielded a melting point of 151 to 152 °C.

`Cc1ccc2c(c1)NC(=O)[C@H](N)C[C@@H]2C1CCCCC1` (relative stereo) returned a melting point of 64 to 66 °C.

`CC(C)(C)c1cccc(C(C)(C)C)c1C(OC(N)=O)S(=O)(=O)NC(c1ccccc1)c1ccccc1` (stereo unspecified) registered a melting point of 175 to 178 °C.

Turning to `O=C(CNC(=O)c1ccc(F)cc1)c1cccnc1`, the melting point fell in the range of 164 to 166 °C.

`Cc1c(F)ccc(C#N)c1Cl`: the melting point fell in the range of 63 to 65 °C.

`CN1CCN(C(=O)c2cn(C)nc2Nc2ccc(C(F)(F)F)cc2N)CC1` returned a melting point of 170 °C.

`COCc1cc(O)n2nc(SCc3ccccc3)nc2n1`: the melting point was 213 °C.

`COc1cc2c(cc1N1CCN(CC3Cc4ccccc4C3)CC1)OCCO2` showed a melting point of 176 to 178 °C.

`CN1C(=O)CSC(c2cccc(Cl)c2)c2cc(C(O)(c3ccc(Cl)cc3)c3cncn3C)ccc21` (stereo unspecified): the melting point was 186 °C.

In the case of `O=C1Nc2ccc(Cl)cc2C1(O)Cc1ccccc1` (stereo unspecified), the melting point is 204 to 205 °C.

For `COc1ccc(-c2ccccc2-c2ccc(S(C)(=O)=O)cc2)cc1F`, the melting point was in the range of 136 to 137 °C.

For the molecule `CS(=O)c1[nH]cc(Cc2ccccc2)c1[N+](=O)[O-]` (stereo unspecified), the melting point lay in the range of 189 to 190 °C.

As for `COC=Nc1c(S(=O)(=O)C(F)(F)F)c(-c2ncon2)nn1-c1c(Cl)cc(C(F)(F)F)cc1Cl`, the melting point turned out to be 158 °C.

Take `CNC(=O)C(C(=O)NC(Cc1ccccc1)C(O)CNCC(O)C(Cc1ccccc1)NC(=O)OC(C)(C)C)C(C)(C)C` (stereo unspecified): the melting point was 117 to 120 °C.

In the case of `Nc1c(Cl)cc(C(O)CNCCCCCCOCCCCCCc2ccc3ccccc3n2)cc1Cl` (stereo unspecified), the melting point is 62.3 to 64.7 °C.

Take `CC(C)CC(C=O)NC(=O)C(Cc1c[nH]cn1)NC(=O)C(CC=Cc1ccccc1)Cc1cccc2ccccc12` (stereo unspecified): the melting point fell in the range of 92 to 96 °C.

Take `O=C1C(c2ccccc2)=C2CCCCC2N1c1ccc(O)cc1` (stereo unspecified): the melting point was determined as 168 °C.

In turn, `Brc1ccc(N(Cc2ccccc2)Cc2ccccc2)cc1` registered a melting point of 123 °C.

`CCN(CC)c1nc(C)nc(SC)c1NC(=O)CBr` yielded a melting point of 173 to 174 °C.

`N#Cc1ccccc1OCCCCCC(=O)O` came in with a melting point of 77 to 80 °C.

As to `CC12CCC(C(=O)O)=CC1=CCC1C2CCC2(C)C(C(=O)C3CCCCC3)CCC12` (stereo unspecified), the melting point was 217 to 220 °C.

`COC(=O)C1=C(C)NC(C)=C(C(=O)OCCN2CCN(C(c3ccccc3)c3ccccc3)CC2)C1c1cccc(Cl)c1Cl` (stereo unspecified) registered a melting point of 84 to 88 °C.

`NC(=S)NN=Cc1c2ccccc2c(C=NNC(N)=S)c2ccccc12` gave a melting point of 275 to 277 °C.

Turning to `CCOC(=O)C(C)=CNc1ccc(OCC)c(C)n1`, the melting point lay within 118 to 122 °C.

With `CC1(C2CCCC2)Cc2cc(OS(=O)(=O)C(F)(F)F)c(Cl)c(Cl)c2C1=O` (single isomer, unassigned; (+)), the melting point was 104 to 106 °C.

`Cc1cc2c(s1)S(=O)(=O)NC2=O` returned a melting point of 231 °C.

As for `CN(C)CC(=O)N1CC(=Cc2ccccc2)C2=NN(C)C(c3ccccc3)C2C1` (stereo unspecified), the melting point is 132 to 134 °C.

The molecule `O=C(CC1CCCCC1=O)c1ccc(Cl)c(Cl)c1` (stereo unspecified) had a melting point of 78 to 79 °C.

On to `CCOCOC1CCC2(C)C(=CCC3C2CCC2(C)C(C(C)CCCC(C)C)CCC32)C1` (stereo unspecified), for which the melting point lay within 64 to 66 °C.

Molecule `CCCCCCCCCCCCCCC(O)CO` (stereo unspecified) returned a melting point of 76 to 77 °C.

Molecule `COCCOc1ccc(-c2sc(N)c(C(=O)c3ccc(Cl)cc3)c2CN(C2CCCCC2)C2CCCCC2)cc1` displayed a melting point of 162 to 164 °C.

As to `COC(=O)/C(=N/O)c1cccc([N+](=O)[O-])c1`, the melting point was determined as 140 °C.

Molecule `COc1ccc(N=Nc2cc(OC)cc(C(C)(C)C)c2O)cc1` registered a melting point of 125 to 127 °C.
